Measured values from patent US9976183B2, “Biomarkers for cancers responsive to modulators of HEC1 activity” (TAIVEX THERAPEUTICS CORPORATION, priority 2011, dated 2018).

Experiments:
Experiment in all cases: Drug sensitivity, MTS cell viability assay (GI50)
Assay type in all cases: cell-based
A549 = conditions: Homo sapiens, A549, 96 hours
Protocol: (§1) Drug sensitivity: Cell lines were screened for drug sensitivity by treatment with specified drugs 24 hours after seeding in appropriate seeding numbers into 96 well plates containing low glucose DME with 10% FBS. The drug was added to the plate in triplicate wells, and the cells are incubated in drug treated medium for 96 hours before cell viability was determined by MTS assay using CellTiter 96® Aqueous non-radioactive cell proliferation assay system (Promega, Madison, Wis. 53711 USA). The MTS assay was performed according to the manufacturer's instructions. Optical density was measured using a Bio-Tek 340 spectrophotometer (Bio-Tek, Winooski, Vt. 05404) and optical readings were then processed in Excel (Microsoft, Redmond, Wash. 98052-7329) and GraphPad Prism 5 linear regression software (GraphPad Software, La Jolla, Calif. 92037 USA) to determine concentration-response curves for calculating relative GI50s. […] The % growth inhibition of the test drug on cells were calculated as: [1−(Test Value)/(Control Value)]×100; these values were used to plot concentration-response curves, and then analyzed with linear regression software.

BT474 = conditions: Homo sapiens, BT-474, BT474, 96 hours
Protocol: as §1

COLO205 = conditions: Homo sapiens, COLO 205, COLO205, 96 hours
Protocol: as §1

HCC1954 = conditions: Homo sapiens, HCC1954, 96 hours
Protocol: as §1

HCT116 = conditions: Homo sapiens, HCT-116, HCT116, 96 hours
Protocol: as §1

HeLa = conditions: Homo sapiens, 96 hours
Protocol: as §1

Hep3B = test system: Hep3B
Protocol: as §1

HepG2 = conditions: Homo sapiens; HepG2, 96 hours, MTS
Protocol: as §1

Hs578T = conditions: Homo sapiens, Hs-578T, 96 hours
Protocol: as §1

KG-1 = conditions: Homo sapiens, KG-1, 96 hours
Protocol: as §1

MCF7 = conditions: Homo sapiens, MCF7, 96 hours
Protocol: as §1

MDA-MB-361 = conditions: Homo sapiens, MDA-MB-361, 96 hours
Protocol: as §1

MDA-MB-453 = conditions: Homo sapiens, MDA-MB-453, 96 hours
Protocol: as §1

MOLM-13 = conditions: Homo sapiens, MOLM-13, 96 hours
Protocol: as §1

MOLT-4 = conditions: Homo sapiens, MOLT-4, 96 hours
Protocol: as §1

MV4-11 = conditions: Homo sapiens, MV4-11, 96 hours
Protocol: as §1

N87 = conditions: N87, 96 hours
Protocol: as §1

NCI-H520 = conditions: Homo sapiens, NCI-H520, 96 hours
Protocol: as §1

PC3 = conditions: Homo sapiens, PC-3, PC3, 96 hours
Protocol: as §1

PLC/PRF/5 = conditions: Homo sapiens, PLC/PRF/5, 96 hours
Protocol: as §1

RPMI8226 = conditions: Homo sapiens, RPMI-8226, RPMI8226, 96 hours
Protocol: as §1

RS4:11 = conditions: Homo sapiens, RS4:11, 96 hours
Protocol: as §1

T47D = conditions: Homo sapiens, 96 hours
Protocol: as §1

U-937 = conditions: Homo sapiens, U-937, 96 hours
Protocol: as §1

U2OS = conditions: Homo sapiens, 96 hours
Protocol: as §1

ZR-75-1 = conditions: Homo sapiens, ZR-75-1, 96 hours
Protocol: as §1

ZR-75-30 = conditions: Homo sapiens, ZR-75-30, 96 hours
Protocol: as §1

GI50 (A549): > 10 µM
GI50 (BT474): 0.0857 µM
GI50 (COLO205): 0.0402 µM
GI50 (HCC1954): > 10 µM
GI50 (HCT116): 0.0389 µM
GI50 (HeLa): 0.0158 µM
GI50 (Hep3B; 96 hours, listed as 110001): 0.104 µM
GI50 (Hep3B; Homo sapiens, 96 h): 0.0961 µM
GI50 (HepG2): 0.273 µM
GI50 (MCF7): 0.0637 µM
GI50 (MDA-MB-361): > 10 µM
GI50 (MDA-MB-453): 0.0236 µM
GI50 (MOLM-13): 0.315 µM
GI50 (MOLT-4): > 30 µM
GI50 (MV4-11): 0.231 µM
GI50 (NCI-H520): 0.0679 µM
GI50 (PC3): 0.06 µM
GI50 (RPMI8226): 0.0272 µM
GI50 (RS4:11): 0.254 µM
GI50 (T47D): 0.0171 µM
GI50 (U-937): 0.022 µM
GI50 (U2OS): 0.139 µM
Compound: COc1ccc(Oc2cc(C)c(-c3csc(NC(=O)c4ccncc4)n3)c(C)c2)cc1 [compound 101001, N-(4-(4-(4-methoxyphenoxy)-2,6-dimethylphenyl)thiazol-2-yl)isonicotinamide]
GI50 (Hs578T): 0.143 µM
GI50 (KG-1): 0.0289 µM
GI50 (N87): > 30 µM
GI50 (PLC/PRF/5): 0.0916 µM
GI50 (ZR-75-1): 0.0796 µM
GI50 (ZR-75-30): 0.0768 µM
